Test results taken from patent publication US8937055B2, “Heterocyclic ring compound having muscle cell or adipocyte differentiation regulating action” (Takeda Pharmaceutical Company Limited, priority 2010, dated 2015).

What was measured:
[1] = system: Mouse-derived myoblast line C2C12 cell; experiment: Cell differentiation promoting activity in myoblast (creatine kinase activity); type: cell-based; details: 48 h, 1 μM compound, 2 days in differentiation medium, CK activity without compound = 100%, read-out: creatinine kinase activating action (%)
Procedure: • (1) Mouse-derived myoblast line C2C12 cell (Dainippon Pharmaceutical Co., Ltd.) was subcultured in a high glucose Eagle's modified Dulbecco's medium (GIBCO) containing 10% calf fetal bovine serum (GIBCO), 100 unit/mL penicillin and 100 μg/mL streptomycin (hereinafter to be referred to as a growth medium), plated at 5000 cells/cm^2 and cultured at 37° C., under 5% CO2. • (2) When the cells reached subconfluence, the medium was exchanged with a high glucose Eagle's modified Dulbecco's medium (GIBCO) containing 2% horse serum (GIBCO) and penicillin, streptomycin and a test compound (hereinafter to be referred to as a differentiation medium), and the cells were cultured for 2 days. To the control group was added DMSO solution instead of the test compound. • (3) The cells were washed with PBS, 0.5% NP-40 solution was added thereto, and the cells were lysed by freeze-thawing. The cell extract was centrifuged, and the creatine kinase activity in the supernatant was measured as an index of muscle differentiation. The creatine kinase activity was measured using CPKII Test Wako (Wako Pure Chemical Industries, Ltd.) according to the manual of the kit. The tests using the compounds of Example 7 to Example 14 were corrected based on the total protein amount measured using CA Protein Assay Kit (Thermo Scientific).
The numerical values in Table 3 show CK activity of the compound addition group with the CK activity without addition of the compound as 100%, and 1 μM of the compound was added for the measurement.

[2] = system: differentiated C2C12 muscle cell; experiment: Sugar metabolism promoting activity in muscle cell (lactic acid production); type: cell-based, mouse; details: C2C12 myotube, 1 μM compound, 2 days; lactic acid concentration without compound = 100%
Procedure: • (1) In the same manner as in Experimental Example 1, C2C12 cell was cultured in a growth medium. When the cells reached subconfluence, the medium was exchanged with a differentiation medium, and the cells were cultured for 3 to 4 days while exchanging the medium every 2 or 3 days until the cells differentiated to form a myotube. • (2) After confirmation of myotube formation under a microscope, the compound (1 μM) was added to a differentiation medium and cultured for 2 days. The cells were washed with Krebs-Ringer HEPES phosphate buffer (10 mM HEPES, pH 7.4, 131 mM NaCl, 4.7 mM KCl, 2.5 mM CaCl2-2H2O, 1.2 mM MgSO4-7H2O, 1.2 mM KH2PO4), the medium was exchanged with Krebs-Ringer HEPES phosphate buffer containing 5 mM glucose, 0.2% fatty acid-free bovine serum albumin, and the cells were cultured at 37° C. for 4 hr. • (3) The lactic acid concentration of the culture supernatant was measured using Detarminer LA kit (Kyowa Medex Co., Ltd.).
The numerical values in Table 4 show the lactic acid concentration of the compound addition group with the lactic acid concentration without addition of the compound as 100%.

3T3-L1 cells = experiment: Adipocyte differentiation suppressive action (fat droplet quantification); type: cell-based; details: for lipid accumulation amount in the cell in fat differentiation, result in words: 1 μM; for lipid accumulation (%): 1 μM compound, 6 days, without compound = 100%, n=2
Procedure: 3T3-L1 cells (ATCC) were cultured in a growth medium until confluence. 1 μM dexamethasone, 0.5 mM 3-isobutyl-1-methylxanthine and 5 μg/mL insulin were added to the medium, and the cells were cultured for 3 days. The medium was exchanged with a growth medium containing 4 μg/mL insulin and the cells were cultured for 3 more days. When the compound (1 μM) was to be added, it was added after the cells reached confluence, and the cells were cultured for 6 days. After completion of the culture period, the fat droplet formed was quantified using Adipogenesis Assay Kit (CHEMICON). The numerical values in Table 12 show the relative value when without addition of the compound as 100% (n is the number of samples).

[3] = Anti-diabetes action in KKA^y mouse (glycohemoglobin); type: in vivo, female KKA^y mouse; details: 2 weeks, variation from value before administration, n=6
Procedure: Female KKA^y mice (12-13 week-old, CLEA Japan, Inc.) were bred allowing free ingestion of both feed and water. The mice were acclimation bred with powder CE-2 (CLEA Japan, Inc.) from 2 weeks before administration of the test compound. The body weight, blood glycohemoglobin % (GHb %) value, plasma glucose, triglyceride and total cholesterol concentration were measured, and the mice were divided into 3 groups or 5 groups (6 mice/group) such that those measurement values are uniform at the start of the administration. The compound was administered by mixing (0.01-0.03%) in the feed for 2 weeks. GHb % was measured on the last day. GHb % was measured using Tosoh Corporation automatic glycohemoglobin analyzer (HLC-723GHbV Alc2.2). The numerical values in Table 11 show the variation from the value before administration to the measured value after administration in mean±standard deviation at n=6 (n is the number of mice).

[4] = Anti-obesity action in high-fat diet-loaded mouse; type: in vivo, male C57BL/6J mouse; details: for plasma total cholesterol concentration (mg/dL) before administration: before administration (baseline); for plasma total cholesterol concentration (mg/dL) before administration / plasma total cholesterol concentration (mg/dL) after administration for 4 weeks / body weight: mean ± SD, n=6; for body weight: once a day for 4 weeks, administration completion day
Procedure: As male C57BL/6J mouse (CLEA Japan, Inc.), mice fed with a high-fat diet (45 kcal % fat, D12451, research diet) for 40 weeks from 5 weeks old were used. After acclimation bred for 3 weeks, the body weight, ingestion amount, body fat percentage, plasma triglyceride, insulin and leptin concentration were measured, and the mice were divided into 4 groups at 6 per group without difference between them. Plasma total cholesterol concentration was measured using Hitachi automatic analyzer 7180. The compound of Example 1 was suspended in aqueous methylcellulose solution, and the suspension was orally administered repeatedly to 3 groups of the […] divided into 4 groups at 3 mg/kg, 10 mg/kg or 30 mg/kg once a day for 4 weeks. A 0.5% aqueous methylcellulose solution was orally administered similarly to the remaining one group, and the group was used as a control group. On the administration completion day, the body weight and plasma total cholesterol concentration were measured. The numerical values in Table 5 show mean±standard deviation at n=6 (n is the number of mice).

NF-kB = NF-kB activation suppressive action in muscle cell (luciferase reporter, TNF-α induced); type: cell-based, mouse; details: TNF-α 10 ng/mL, activity without TNF-α = 1, n=8
Procedure: • (1) C2C12 cells introduced with NF-kB reporter plasmid (C2C12/NF-kB-luc, Panomics) was plated at 20000 cells/cm^2, 100 μg/ml hygromycin was added thereto, and the cells were cultured in a growth medium in the same manner as in Example 1. • (2) The cells were cultured in a differentiation medium containing the compound of Example 1, Example 8, Example 9, Example 10 or Example 11 for 1 hr, TNF-α was added thereto such that the concentration is 10 ng/mL, and the cells were cultured for 4 hr. • (3) The luciferase activity in the medium was measured using a Stedy-Glo luciferase assay system (Promega). The NF-kB activity was evaluated by measuring the luciferase activity.
The data in Table 6 to Table 10 show mean±standard deviation at n=8 (n is the number of samples).

## COc1ccc(-c2ccncc2/C=C/C(=O)Nc2ccc(CCc3nnco3)cc2)cc1 [Example 2, (2E)-3-[4-(4-methoxyphenyl)pyridin-3-yl]-N-{4-[2-(1,3,4-oxadiazol-2-yl)ethyl]phenyl}prop-2-enamide]
[1]
  activity at 1 µM: 211%
[2]
  lactic acid production promoting action (%): 168.3%
3T3-L1 cells
  lipid accumulation amount in the cell in fat differentiation, result in words: decrease the lipid accumulation amount in the cell
  lipid accumulation (%): 45%
[3]; 0.02% mixed with feed
  GHb change (%): −1%

## O=C(/C=C/c1cnccc1-c1ccc(F)cc1)Nc1ccc(CCc2nnco2)cc1 [Example 1, (2E)-3-[4-(4-fluorophenyl)pyridin-3-yl]-N-{4-[2-(1,3,4-oxadiazol-2-yl)ethyl]phenyl}prop-2-enamide]
[1]
  activity at 1 µM: 196%
[4]; 3 mg/kg/day group
  plasma total cholesterol concentration (mg/dL) before administration: 265.5 ± 29.7 mg/dL
[4]; 3 mg/kg/day oral
  plasma total cholesterol concentration (mg/dL) after administration for 4 weeks: 225.9 ± 27.7 mg/dL
  body weight: 52.5 ± 2.5 g
[4]; 10 mg/kg/day group
  plasma total cholesterol concentration (mg/dL) before administration: 270.9 ± 24.5 mg/dL
[4]; 10 mg/kg/day oral
  plasma total cholesterol concentration (mg/dL) after administration for 4 weeks: 192.8 ± 27.6 mg/dL
  body weight: 49.0 ± 3.2 g
[4]; 30 mg/kg/day group
  plasma total cholesterol concentration (mg/dL) before administration: 275.9 ± 18.2 mg/dL
[4]; 30 mg/kg/day oral
  plasma total cholesterol concentration (mg/dL) after administration for 4 weeks: 161.7 ± 16.9 mg/dL
  body weight: 44.9 ± 3.1 g
[4]; administration at 10 mg/kg or above, result in words
  body weight decreasing action: showed a body weight decreasing action
[4]; high-fat diet-loaded mouse, 4 weeks oral
  plasma total cholesterol concentration, result in words: decreased total cholesterol concentration
NF-kB; 0.001 μM compound
  NF-κB activity (multiple): 13.2 multiple
NF-kB; 0.003 μM compound
  NF-κB activity (multiple): 13.4 multiple
NF-kB; 0.01 μM compound
  NF-κB activity (multiple): 13.7 multiple
NF-kB; 0.03 μM compound
  NF-κB activity (multiple): 12.5 multiple
NF-kB; 0.1 μM compound
  NF-κB activity (multiple): 10.7 multiple
NF-kB; 0.3 μM compound
  NF-κB activity (multiple): 9.4 multiple
NF-kB; 1 μM compound
  NF-κB activity (multiple): 9.3 multiple
NF-kB; 3 μM compound
  NF-κB activity (multiple): 8.3 multiple
NF-kB; 10 μM compound
  NF-κB activity (multiple): 9.0 multiple
[2]
  lactic acid production promoting action (%): 226.1%
3T3-L1 cells
  lipid accumulation amount in the cell in fat differentiation, result in words: decrease the lipid accumulation amount in the cell
  lipid accumulation (%): 53%
[3]; 0.01% mixed with feed
  GHb change (%): −0.4%
